# Test results from patent US12258337B2, “Bicyclic CX3CR1 receptor agonists” (Board of Regents, The University of Texas System, priority 2019, dated 2025).
# Key:
# [1] = target: T1, mCX3CR1 (Mus musculus, UniProt Q9Z0D9); experiment: Ga16 assay, CX3CR1 agonism, Ca2+ sensitive photo-protein readout (FLIPRTETRA); format: cell-based; conditions: mouse CX3CR1 cell line
# T1 construct: expressed in transfected cells; stably expresses a Ca2+ sensitive photo-protein
# T1 sequence (Q9Z0D9 1-354): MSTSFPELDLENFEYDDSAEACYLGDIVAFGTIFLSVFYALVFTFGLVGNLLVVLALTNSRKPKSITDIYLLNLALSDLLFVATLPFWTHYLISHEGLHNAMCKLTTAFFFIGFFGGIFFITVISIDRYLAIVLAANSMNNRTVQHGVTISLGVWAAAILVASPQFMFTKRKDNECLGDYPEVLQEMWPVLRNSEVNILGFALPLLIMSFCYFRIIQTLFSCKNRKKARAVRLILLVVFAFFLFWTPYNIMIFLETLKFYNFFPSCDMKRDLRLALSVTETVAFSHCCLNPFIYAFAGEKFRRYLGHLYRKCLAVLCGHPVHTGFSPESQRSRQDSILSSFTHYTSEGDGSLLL
# In short: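 Cells expressing human, mouse or rat CX3CR1 with a stably expressed Ca2+-sensitive photoprotein were loaded with 10 μM coelenterazine in tyrode buffer pH 7.4 for 3 h at room temperature. Agonist-mode luminescence kinetics were recorded for 90 s after compound injection on FLIPRTETRA. Dose-response runs were done in quadruplicate, with fractalkine as the reference agonist.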
# [2] = target: T2, hCX3CR1 (Homo sapiens, UniProt P49238); experiment: ChAMPion assay (CHO ChAMPion/CX3CR1 K1.6, cAMP/CNG channel, photoprotein luminescence); format: cell-based; parameters: expressed in transfected cells; stably expresses a Ca2+ sensitive photo-protein; conditions: ChAMPion assay, CHO ChAMPion/CX3CR1 K1.6, Forskolin 3 μM; read-out: hCX3CR1 agonism EC50
# T2 sequence (P49238 1-355): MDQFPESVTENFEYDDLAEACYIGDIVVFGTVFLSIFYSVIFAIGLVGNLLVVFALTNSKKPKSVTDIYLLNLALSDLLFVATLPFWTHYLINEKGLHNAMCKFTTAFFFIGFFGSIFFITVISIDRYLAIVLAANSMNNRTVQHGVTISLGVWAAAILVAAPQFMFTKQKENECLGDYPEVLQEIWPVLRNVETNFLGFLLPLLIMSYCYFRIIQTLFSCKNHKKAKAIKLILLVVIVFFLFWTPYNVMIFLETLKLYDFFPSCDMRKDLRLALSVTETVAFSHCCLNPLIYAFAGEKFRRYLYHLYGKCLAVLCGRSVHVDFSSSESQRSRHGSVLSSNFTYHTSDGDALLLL
# Protocol: Buffers and reagents. PBS (D-PBS without calcium and magnesium; EuroClone); Trypsin (Trypsin 0.05%, EDTA 0.02% in PBS; EuroClone); DMSO (Sigma); Tyrode buffer Ca^2+ free: in-house solution (130 mM NaCl, 5 mM KCl, 1 mM MgCl^2, 5 mM NaHCO3, 20 mM HEPES (pH 7.4); sterile filtered and autoclaved); Tyrode buffer 10 mM Ca^2+: in-house solution (130 mM NaCl, 5 mM KCl, 10 mM CaCl2), 1 mM MgCl2, 5 mM NaHCO3, 20 mM HEPES, in water at pH 7.4, sterile filtered); Coelenterazine, native (Biosynth); stock 10 mM; Agonist: Recombinant Human Fractalkine (CX3CL1) (PeproTech); stock: 10 μM in standard Tyrode buffer/BSA 01%; stored at −20° C.
# Cell line. The final clone for the hCX3CR1 assay was CHO ChAMPion/CX3CR1 K1.6. ChAMPion technology is based on the co-expression of a Ca^2+ sensitive photoprotein and of a cyclic nucleotide-gated (CNG) channel acting as a cAMP biosensor in a CHO-K1 cell line. CNG channels are non-selective ligand gated cation channels that can be opened by the direct interaction with either cAMP or cGMP, at the intracellular C-terminus site of the channel. Channel opening allows the flux of extracellular calcium into the cell cytoplasm and its transient elevation can be recorded by means of several different calcium indicators. In the chAMPion system, the CNG channel has been modified to display sensitivity to cAMP levels in the physiological range. In addition the calcium influx through the opened channel is immediately detected by the recording of the photoprotein-emitted flash type luminescence signal.
# The chAMPion cell line system can monitor the activation of transfected Gαi-coupled receptors, which elicit changes in 3,‘5’-adenosine cyclic monophosphate (cAMP) levels, which in turn is responsible for CNG opening and consequent Ca^2+ influx.
# Assay protocol. Experiments were performed in 384 MTP format. Cells were seeded at 10,000 cells/well in 25 μL/well complete growth medium without selection antibiotics in 384-well plates. Twenty-four hours later, cells were assayed for the response to various compounds using the Ca^2+ sensitive photo-protein stably expressed in the cells as readout.
# The experiment was performed in a 384-well format according to the following procedure: • 24h after seeding, pre-incubate the cells at room temperature for 1 hour. • Then remove the culture medium. • Load cells with 20 μL/well of Ca^2+ free tyrode buffer+ceolenterazine 5 μM. • Incubate cell plates for 4 hours at RT. • 10 μl/well of 3× concentrated compounds in Ca^2+ free tyrode buffer+Forskolin 9 μM (final Forskolin concentration=3 μM) are applied to the cells (at 10 μl/s). Ten minutes later a second injection is performed: 10 μl/well of Ca^2+ free tyrode buffer+BSA 0.04% (final BSA concentration=0.01%). Twenty minutes later a third injection is performed: 20 μl/well of 10 mM Ca^2+ tyrode buffer (final Ca^2+ concentration was 3.3 mM) and luminescence is recorded for 90 seconds.
# Data from FLIPRTETRA measurements are analyzed with the Genedata Screener© software.
SMILES,EC50 [1] [µM],EC50 [2] [µM]
"CN(C)CC1(CNC(=O)c2cc3c(s2)CCCCCC3)CC(O)C1 (stereo not shown) [Example 31, N-[[1-[(dimethylamino)methyl]-3-hydroxycyclobutyl]methyl]-4,5,6,7,8,9-hexahydrocycloocta[b]thiophene-2-carboxamide]",18.5,0.89
"O=C(NCC1(CN2CCC(O)CC2)CCCC1)c1cc2c(s1)CCCCCC2 [Example 28, N-[[1-[(4-hydroxypiperidin-1-yl)methyl]cyclopentyl]methyl]-4,5,6,7,8,9-hexahydrocycloocta[b]thiophene-2-carboxamide]",10,0.79
"CN(C)CC1(CNC(=O)c2cc3c(s2)CCCCCC3)CCCC1 [Example 2, N-[[1-[(dimethylamino)methyl]cyclopentyl]methyl]-4,5,6,7,8,9-hexahydrocycloocta[b]thiophene-2-carboxamide]",10.3,1.3
"CC(C)(CNC(=O)c1cc2c(s1)CCCCCC2)CN1CCCCC1 [Example 13, N-(2,2-dimethyl-3-piperidin-1-ylpropyl)-4,5,6,7,8,9-hexahydrocycloocta[b]thiophene-2-carboxamide]",16,2.2
"O=C(NCC1(CN2CCCC2)CCC1)c1cc2c(s1)CCCCCC2 [Example 21, N-[[1-(pyrrolidin-1-ylmethyl)cyclobutyl]methyl]-4,5,6,7,8,9-hexahydrocycloocta[b]thiophene-2-carboxamide]",6.6,4.4
"O=C(NCC1(CN2CCCC(O)C2)CCCC1)c1cc2c(s1)CCCCCC2 (stereo not shown) [Example 27, N-[[1-[(3-hydroxypiperidin-1-yl)methyl]cyclopentyl]methyl]-4,5,6,7,8,9-hexahydrocycloocta[b]thiophene-2-carboxamide]",12.7,13.1
"CN(C)CC(C)(C)CNC(=O)c1cc2c(s1)CCCCCC2 [Example 70, N-[3-(dimethylamino)-2,2-dimethylpropyl]-4,5,6,7,8,9-hexahydrocycloocta[b]thiophene-2-carboxamide]",44.7,3.1
"CN(CCO)CC1(CNC(=O)c2cc3c(s2)CCCCCC3)CCC1 [Example 30, N-[[1-[[2-hydroxyethyl(methyl)amino]methyl]cyclobutyl]methyl]-4,5,6,7,8,9-hexahydrocycloocta[b]thiophene-2-carboxamide]",17,0.6
"O=C(NCC1(CN2CCC(O)C2)CCCC1)c1cc2c(s1)CCCCCC2 (racemic) [Example 25, N-[[1-[(3-hydroxypyrrolidin-1-yl)methyl]cyclopentyl]methyl]-4,5,6,7,8,9-hexahydrocycloocta[b]thiophene-2-carboxamide]",39.7,0.7
"CN(C)CC1(CNC(=O)c2cc3c(s2)CCCCCC3)CCC1 [Example 23, N-[[1-[(dimethylamino)methyl]cyclobutyl]methyl]-4,5,6,7,8,9-hexahydrocycloocta[b]thiophene-2-carboxamide]",11.5,1.4
"O=C(NCC1(CN2CCCC2)CC(O)C1)c1cc2c(s1)CCCCCC2 (stereo not shown) [Example 32, N-[[3-hydroxy-1-(pyrrolidin-1-ylmethyl)cyclobutyl]methyl]-4,5,6,7,8,9-hexahydrocycloocta[b]thiophene-2-carboxamide]",14.8,0.64
"O=C(NCC1(CN2CCCC2)CCCC1)c1cc2c(s1)CCCCCC2 [Example 5, N-[[1-(pyrrolidin-1-ylmethyl)cyclopentyl]methyl]-4,5,6,7,8,9-hexahydrocycloocta[b]thiophene-2-carboxamide]",11.3,1.8
"O=C(NCC1(CN2CCCCC2)CCCC1)c1cc2c(s1)CCCCCC2 [Example 15, N-[[1-(piperidin-1-ylmethyl)cyclopentyl]methyl]-4,5,6,7,8,9-hexahydrocycloocta[b]thiophene-2-carboxamide]",24.2,2.7
"CC(C)(CNC(=O)c1cc2c(s1)CCCCCC2)CN1CCCC1 [Example 1, N-(2,2-dimethyl-3-pyrrolidin-1-ylpropyl)-4,5,6,7,8,9-hexahydrocycloocta[b]thiophene-2-carboxamide]",15.7,2.1
